This note sets out measurements from patent publication US6423689B1, “Peptidyl calcium channel blockers” (Warner-Lambert Company, priority 1997, dated 2002).

Molecules are shown by their SMILES. pIC50: −log10 of the molar value.

This assay deals with T1, N-type Ca2+ channels in IMR-32 cells (Homo sapiens, UniProt Q00975).
T1 construct: host or cells: IMR-32 cells, differentiated with dibutyryl cAMP and bromodeoxyuridine
Put plainly: Inhibition of N-type calcium flux in IMR-32 cells (Indo-1 fluorescence, nitrendipine present). The class given is cell-based. Conditions: for pIC50: IMR-32 cells, 5 μM nitrendipine, K+ depolarization; for inhibition at 1 µM / inhibition at 10 µM: IMR-32. The gist of the method:
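Differentiated IMR-32 cells (7–13 days) were loaded with 5 μM Indo-1 AM, preincubated with compound for 10 min at 30° C, and depolarized with KCl/CaCl2 stimulation solution, with 5 μM nitrendipine blocking L-channels. Peak-minus-basal 400/490 nm emission ratio was plotted against drug concentration, and IC50 came from four-parameter logistic fits.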
A general note: Calcium assays in cells follow changes in intracellular calcium, usually with a dye or a luminescent sensor.

T1 sequence (Q00975 whole entry): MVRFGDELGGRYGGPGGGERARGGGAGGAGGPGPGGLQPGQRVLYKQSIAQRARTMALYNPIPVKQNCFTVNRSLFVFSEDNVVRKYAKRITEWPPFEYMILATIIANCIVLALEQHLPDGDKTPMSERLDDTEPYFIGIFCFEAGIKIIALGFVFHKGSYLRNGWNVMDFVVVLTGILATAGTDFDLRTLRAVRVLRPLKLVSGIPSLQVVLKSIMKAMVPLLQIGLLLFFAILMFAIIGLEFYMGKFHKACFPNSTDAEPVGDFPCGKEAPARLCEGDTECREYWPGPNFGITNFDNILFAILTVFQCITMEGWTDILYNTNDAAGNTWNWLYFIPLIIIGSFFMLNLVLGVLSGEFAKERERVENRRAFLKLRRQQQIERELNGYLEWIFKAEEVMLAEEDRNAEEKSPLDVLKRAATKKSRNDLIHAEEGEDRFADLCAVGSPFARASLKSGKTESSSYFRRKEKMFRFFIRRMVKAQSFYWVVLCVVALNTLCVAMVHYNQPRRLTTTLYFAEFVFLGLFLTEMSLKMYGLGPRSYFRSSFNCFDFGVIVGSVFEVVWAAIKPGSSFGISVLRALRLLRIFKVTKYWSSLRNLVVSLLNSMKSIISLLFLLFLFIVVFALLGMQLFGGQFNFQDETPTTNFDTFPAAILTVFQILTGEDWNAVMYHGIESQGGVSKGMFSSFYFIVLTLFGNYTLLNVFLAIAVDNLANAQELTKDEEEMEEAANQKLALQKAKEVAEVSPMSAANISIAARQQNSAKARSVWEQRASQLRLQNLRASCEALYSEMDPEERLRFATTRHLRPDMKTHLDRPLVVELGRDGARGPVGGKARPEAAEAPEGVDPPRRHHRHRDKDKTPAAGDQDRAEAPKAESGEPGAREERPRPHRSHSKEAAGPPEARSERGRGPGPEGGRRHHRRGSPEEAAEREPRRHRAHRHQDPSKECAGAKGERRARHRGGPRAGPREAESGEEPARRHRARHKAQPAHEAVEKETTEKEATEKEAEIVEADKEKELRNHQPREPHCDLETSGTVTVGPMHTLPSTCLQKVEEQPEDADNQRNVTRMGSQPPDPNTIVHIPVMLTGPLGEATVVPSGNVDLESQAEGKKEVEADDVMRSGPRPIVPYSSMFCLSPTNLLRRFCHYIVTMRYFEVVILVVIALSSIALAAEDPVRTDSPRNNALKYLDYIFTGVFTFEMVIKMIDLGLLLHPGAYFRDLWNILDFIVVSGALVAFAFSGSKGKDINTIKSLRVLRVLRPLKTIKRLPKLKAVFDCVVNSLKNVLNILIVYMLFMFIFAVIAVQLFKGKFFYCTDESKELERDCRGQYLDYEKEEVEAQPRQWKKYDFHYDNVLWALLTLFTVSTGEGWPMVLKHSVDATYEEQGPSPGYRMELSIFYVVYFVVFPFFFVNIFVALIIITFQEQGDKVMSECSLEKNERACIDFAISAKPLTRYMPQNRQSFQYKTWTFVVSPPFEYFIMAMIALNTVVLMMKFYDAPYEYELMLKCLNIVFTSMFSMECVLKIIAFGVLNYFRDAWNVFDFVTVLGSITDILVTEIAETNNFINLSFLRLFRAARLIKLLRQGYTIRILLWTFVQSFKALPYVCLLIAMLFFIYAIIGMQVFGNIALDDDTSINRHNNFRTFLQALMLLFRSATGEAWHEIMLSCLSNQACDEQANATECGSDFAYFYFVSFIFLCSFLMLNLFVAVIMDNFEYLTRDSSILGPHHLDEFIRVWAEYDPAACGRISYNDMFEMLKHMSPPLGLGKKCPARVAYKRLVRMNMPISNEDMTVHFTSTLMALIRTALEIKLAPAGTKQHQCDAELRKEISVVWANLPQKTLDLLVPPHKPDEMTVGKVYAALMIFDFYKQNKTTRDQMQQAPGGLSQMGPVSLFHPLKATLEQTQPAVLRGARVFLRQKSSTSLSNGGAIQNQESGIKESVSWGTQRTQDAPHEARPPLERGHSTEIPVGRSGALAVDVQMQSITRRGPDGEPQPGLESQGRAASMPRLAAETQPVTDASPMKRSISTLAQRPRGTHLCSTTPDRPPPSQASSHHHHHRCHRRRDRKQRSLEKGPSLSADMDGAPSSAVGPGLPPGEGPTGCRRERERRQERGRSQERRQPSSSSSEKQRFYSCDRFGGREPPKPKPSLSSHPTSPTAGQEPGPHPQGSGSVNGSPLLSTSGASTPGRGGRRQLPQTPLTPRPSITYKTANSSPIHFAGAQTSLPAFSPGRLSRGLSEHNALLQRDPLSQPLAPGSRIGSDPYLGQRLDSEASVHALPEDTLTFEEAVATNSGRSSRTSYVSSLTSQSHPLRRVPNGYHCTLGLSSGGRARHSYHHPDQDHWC
T1 sequence (P54289 25-956 partner limits assumed): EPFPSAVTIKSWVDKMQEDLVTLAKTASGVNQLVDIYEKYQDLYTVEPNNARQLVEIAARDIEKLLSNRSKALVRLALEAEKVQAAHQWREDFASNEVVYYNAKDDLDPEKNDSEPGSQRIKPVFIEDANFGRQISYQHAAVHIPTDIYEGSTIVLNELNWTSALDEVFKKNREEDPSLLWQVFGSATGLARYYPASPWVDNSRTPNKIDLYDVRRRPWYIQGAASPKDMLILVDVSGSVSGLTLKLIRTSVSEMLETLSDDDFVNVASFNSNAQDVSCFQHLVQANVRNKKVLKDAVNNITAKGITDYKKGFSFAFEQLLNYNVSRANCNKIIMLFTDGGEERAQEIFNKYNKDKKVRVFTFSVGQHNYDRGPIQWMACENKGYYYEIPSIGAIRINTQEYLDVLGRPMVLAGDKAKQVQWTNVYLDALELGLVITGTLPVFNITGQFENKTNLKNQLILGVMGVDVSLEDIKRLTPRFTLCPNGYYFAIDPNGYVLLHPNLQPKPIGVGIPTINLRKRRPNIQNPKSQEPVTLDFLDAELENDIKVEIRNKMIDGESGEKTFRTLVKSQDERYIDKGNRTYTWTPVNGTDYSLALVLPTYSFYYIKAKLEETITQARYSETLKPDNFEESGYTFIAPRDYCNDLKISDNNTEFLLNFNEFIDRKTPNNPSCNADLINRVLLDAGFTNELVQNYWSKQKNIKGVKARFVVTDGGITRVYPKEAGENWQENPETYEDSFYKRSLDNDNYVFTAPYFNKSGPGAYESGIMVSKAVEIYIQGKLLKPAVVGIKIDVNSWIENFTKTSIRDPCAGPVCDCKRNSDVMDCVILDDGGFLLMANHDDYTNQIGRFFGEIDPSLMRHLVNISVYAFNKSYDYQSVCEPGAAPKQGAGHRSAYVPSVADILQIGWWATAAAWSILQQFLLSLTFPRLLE
T1 sequence (P54289 957-1103 partner limits assumed): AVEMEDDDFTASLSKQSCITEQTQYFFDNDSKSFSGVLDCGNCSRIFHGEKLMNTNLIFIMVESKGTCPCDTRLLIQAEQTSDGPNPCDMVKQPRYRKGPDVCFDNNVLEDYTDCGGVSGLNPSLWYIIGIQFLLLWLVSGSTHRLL
T1 sequence (P54284 whole entry partner): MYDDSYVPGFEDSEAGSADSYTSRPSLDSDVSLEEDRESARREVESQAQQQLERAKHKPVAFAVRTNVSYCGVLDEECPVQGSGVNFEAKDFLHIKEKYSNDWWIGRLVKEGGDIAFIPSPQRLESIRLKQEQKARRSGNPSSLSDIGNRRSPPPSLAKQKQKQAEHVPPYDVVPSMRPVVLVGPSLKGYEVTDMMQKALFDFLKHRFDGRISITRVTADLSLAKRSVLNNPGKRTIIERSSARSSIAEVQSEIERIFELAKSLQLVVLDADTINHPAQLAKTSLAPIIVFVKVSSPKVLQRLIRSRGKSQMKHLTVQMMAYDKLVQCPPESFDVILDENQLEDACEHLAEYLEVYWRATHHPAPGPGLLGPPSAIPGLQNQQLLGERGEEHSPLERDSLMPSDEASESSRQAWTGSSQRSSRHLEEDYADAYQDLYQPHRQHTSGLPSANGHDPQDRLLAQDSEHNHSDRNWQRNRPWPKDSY

In the case of `CC(C)CC(NC(=O)N1CCCCCC1)C(=O)NC(Cc1ccc(OCc2ccccc2)cc1)C(=O)NCCCN1CCCCC1C` (stereo not shown) [Example 196, Azepane-1-carboxylic acid (1-{2-(4-benzyloxy-phenyl)-1-[3-(2-methyl-piperidin-1-yl)-propylcarbamoyl]-ethylcarbamoyl}-3-methyl-butyl)-amide], the pIC50 is 6.15.
On to `CC(C)CC(NC(=O)N1CCCCCC1)C(=O)NC(Cc1ccc(OCc2ccccc2)cc1)C(=O)NC1CCCN(C)C1c1ccccc1` (stereo not shown) [Example 197, Azepane-1-carboxylic acid {1-[2-(4-benzyloxy-phenyl)-1-(1-methyl-2-phenyl-piperidin-3-ylcarbamoyl)-ethylcarbamoyl]-3-methyl-butyl}-amide], for which the pIC50 was 6.66.
For `CC(C)CC(NC(=O)N1CCCCCC1)C(=O)NC(Cc1ccc(OCc2ccccc2)cc1)C(=O)NC1CCCN(CC(C)C)C1` (stereo not shown) [Example 198, Azepane-1-carboxylic acid {1-[2-(4-benzyloxy-phenyl)-1-(1-isobutyl-piperidin-3-ylcarbamoyl)-ethylcarbamoyl]-3-methyl-butyl}-amide], the negative logarithm of the IC50 (pIC50) was 6.44.
As for `CC(C)C[C@H](NC(=O)N1CCCCCC1)C(=O)N[C@@H](Cc1ccc(OCc2ccccc2)cc1)C(=O)N1CC(C)OC(C)C1` (stereo partly drawn) [Example 199, [S-(R*,R*)]-Azepane-1-carboxylic acid {1-[1-(4-benzyloxy-benzyl)-2-(2,6-dimethyl-morpholin-4-yl)-2-oxo-ethylcarbamoyl]-3-methyl-butyl}-amide], the inhibition at 1 µM is 36%, the inhibition at 10 µM was 86% and the pIC50 is 5.74.
For `CC(C)CC(NC(=O)N1CCCCCC1)C(=O)NC(Cc1ccc(OCc2ccccc2)cc1)C(=O)N1CCCC(C)C1` (stereo not shown) [Example 200, Azepane-1-carboxylic acid {1-[1-(4-benzyloxy-benzyl)-2-(3-methyl-piperidin-1-yl)-2-oxo-ethylcarbamoyl]-3-methyl-butyl}-amide], in that order: 53%, 88% and 6.05.
The matching figures for `CC(C)C[C@H](NC(=O)N1CCCCCC1)C(=O)N[C@@H](Cc1ccc(OCc2ccccc2)cc1)C(=O)N1CCc2ccccc2C1` [Example 201, [S-(R*,R*)]-Azepane-1-carboxylic acid {1-[1-(4-benzyloxy-benzyl)-2-(3,4-dihydro-1H-isoquinolin-2-yl)-2-oxo-ethylcarbamoyl]-3-methyl-butyl}-amide]: 29%, 81% and 5.62.
For `CC(C)C[C@H](NC(=O)N1CCCCCC1)C(=O)N[C@@H](Cc1ccc(OCc2ccccc2)cc1)C(=O)N1CCN(CCO)CC1` [Example 202, [S-(R*,R*)]-Azepane-1-carboxylic acid (1-{1-(4-benzyloxy-benzyl)-2-[4-(2-hydroxy-ethyl)-piperazin-1-yl]-2-oxo-ethylcarbamoyl}-3-methyl-butyl)-amide], in that order: 25%, 79% and 5.55.
For `CC(C)C[C@H](NC(=O)N1CCCCCC1)C(=O)N[C@@H](Cc1ccc(OCc2ccccc2)cc1)C(=O)NC1CC(C)(C)NC(C)(C)C1` [Example 203, [S-(R*,R*)]-Azepane-1-carboxylic acid {1-[2-(4-benzyloxy-phenyl)-1-(2,2,6,6-tetramethyl-piperidin-4-ylcarbamoyl)-ethylcarbamoyl]-3-methyl-butyl}-amide], the inhibition at 1 µM was 15%, the inhibition at 10 µM stood at 70% and the pIC50 is 5.33.
For the compound `CC(=O)N1CCN(C(=O)[C@H](Cc2ccc(OCc3ccccc3)cc2)NC(=O)[C@H](CC(C)C)NC(=O)N2CCCCCC2)CC1` [Example 204, [S-(R*,R*)]-Azepane-1-carboxylic acid {1-[2-(4-acetyl-piperazin-1-yl)-1-(4-benzyloxy-benzyl)-2-oxo-ethylcarbamoyl]-3-methyl-butyl}-amide], the inhibition at 1 µM came out at 13%, the inhibition at 10 µM worked out at 66% and the pIC50 was 5.26.
`CC(C)C[C@H](NC(=O)N1CCCCCC1)C(=O)N[C@@H](Cc1ccc(OCc2ccccc2)cc1)C(=O)NCC1CCCCC1` [Example 205, [S-(R*,R*)]-Azepane-1-carboxylic acid {1-[2-(4-benzyloxy-phenyl)-1-(cyclohexylmethyl-carbamoyl)-ethylcarbamoyl]-3-methyl-butyl}-amide]: the inhibition at 1 µM was found to be 36%, the inhibition at 10 µM stood at 72% and the pIC50 was 5.62.
For `CC(C)C[C@H](NC(=O)N1CCCCCC1)C(=O)N[C@@H](Cc1ccc(OCc2ccccc2)cc1)C(=O)NCC1CC1` [Example 206, [S-(R*,R*)]-Azepane-1-carboxylic acid {1-[2-(4-benzyloxy-phenyl)-1-(cyclopropylmethyl-carbamoyl)-ethylcarbamoyl]-3-methyl-butyl}-amide], in that order: 37%, 87% and 5.77.
As to `CC(C)C[C@H](NC(=O)N1CCCCCC1)C(=O)N[C@@H](Cc1ccc(OCc2ccccc2)cc1)C(=O)Nc1nccs1` [Example 207, [S-(R*,R*)]-Azepane-1-carboxylic acid {1-[2-(4-benzyloxy-phenyl)-1-(thiazol-2-ylcarbamoyl)-ethylcarbamoyl]-3-methyl-butyl}-amide], the inhibition at 1 µM amounted to 21%, the inhibition at 10 µM came out at 59% and the pIC50 was 5.21.
For `CC(C)C[C@H](NC(=O)N1CCCCCC1)C(=O)N[C@@H](Cc1ccc(OCc2ccccc2)cc1)C(=O)NC1CCCCCC1` [Example 208, [S-(R*,R*)]-Azepane-1-carboxylic acid {1-[2-(4-benzyloxy-phenyl)-1-cycloheptylcarbamoyl-ethylcarbamoyl]-3-methyl-butyl}-amide], in that order: 38%, 81% and 5.74.
With `CC(C)C[C@H](NC(=O)N1CCCCCC1)C(=O)N[C@@H](Cc1ccc(OCc2ccccc2)cc1)C(=O)NC1CC1` [Example 209, [S-(R*,R*)]-Azepane-1-carboxylic acid {1-[2-(4-benzyloxy-phenyl)-1-cyclopropylcarbamoyl-ethylcarbamoyl]-3-methyl-butyl}-amide], the inhibition at 1 µM is 27%, the inhibition at 10 µM amounted to 82% and the pIC50 was 5.60.
Consider `COc1ccc(NC(=O)[C@H](Cc2ccc(OCc3ccccc3)cc2)NC(=O)[C@H](CC(C)C)NC(=O)N2CCCCCC2)cc1` [Example 210, [S-(R*,R*)]-Azepane-1-carboxylic acid {1-[2-(4-benzyloxy-phenyl)-1-(4-methoxy-phenylcarbamoyl)-ethylcarbamoyl]-3-methyl-butyl}-amide], for which the inhibition at 1 µM stood at 39% and the pIC50 is 5.82.
Regarding `CC(C)C[C@H](NC(=O)N1CCCCCC1)C(=O)N[C@@H](Cc1ccc(OCc2ccccc2)cc1)C(=O)Nc1ccc(CCO)cc1` [Example 211, [S-(R*,R*)]-Azepane-1-carboxylic acid (1-{2-(4-benzyloxy-phenyl)-1-[4-(2-hydroxy-ethyl)-phenylcarbamoyl]-ethylcarbamoyl}-3-methyl-butyl)-amide], the inhibition at 1 µM came out at 49%, the inhibition at 10 µM came out at 81% and the pIC50 was 5.96.
For `CC(=O)c1ccc(NC(=O)[C@H](Cc2ccc(OCc3ccccc3)cc2)NC(=O)[C@H](CC(C)C)NC(=O)N2CCCCCC2)cc1` [Example 212, [S-(R*,R*)]-Azepane-1-carboxylic acid {1-[1-(4-acetyl-phenylcarbamoyl)-2-(4-benzyloxy-phenyl)-ethylcarbamoyl]-3-methyl-butyl}-amide], in that order: 34%, 66% and 5.72.
For `CC(C)C[C@H](NC(=O)N1CCCCCC1)C(=O)N[C@@H](Cc1ccc(OCc2ccccc2)cc1)C(=O)Nc1ccc(Oc2ccccc2)cc1` [Example 213, [S-(R*,R*)]-Azepane-1-carboxylic acid {1-[2-(4-benzyloxy-phenyl)-1-(4-phenoxy-phenylcarbamoyl)-ethylcarbamoyl]-3-methyl-butyl}-amide], in that order: 30%, 33% and 5.62.
For `CC(C)C[C@H](NC(=O)N1CCCCCC1)C(=O)N[C@@H](Cc1ccc(OCc2ccccc2)cc1)C(=O)Nc1cccc(C(F)(F)F)c1` [Example 214, [S-(R*,R*)]-Azepane-1-carboxylic acid {1-[2-(4-benzyloxy-phenyl)-1-(3-trifluoromethyl-phenylcarbamoyl)-ethylcarbamoyl]-3-methyl-butyl}-amide], in that order: 42%, 51% and 5.85.
For the compound `CC(C)C[C@H](NC(=O)N1CCCCCC1)C(=O)N[C@@H](Cc1ccc(OCc2ccccc2)cc1)C(=O)NCc1ccc(CN)cc1` [Example 217, [S-(R*,R*)]-Azepane-1-carboxylic acid {1-[1-(4-aminomethyl-benzylcarbamoyl)-2-(4-benzyloxy-phenyl)-ethylcarbamoyl]-3-methyl-butyl}-amide], the inhibition at 1 µM amounted to 35%, the inhibition at 10 µM came to 75% and the negative logarithm of the IC50 (pIC50) is 5.30.
For `CC(C)CC(NC(=O)N1CCCCCC1)C(=O)NC(Cc1ccc(OCc2ccccc2)cc1)C(=O)N1CCCC1CNc1ccccc1` (stereo not shown) [Example 218, Azepane-1-carboxylic acid {1-[1-(4-benzyloxy-benzyl)-2-oxo-2-(2-phenylaminomethyl-pyrrolidin-1-yl)-ethylcarbamoyl]-3-methyl-butyl}-amide], the inhibition at 1 µM is 62% and the inhibition at 10 µM worked out at 93%.

As a reminder, the pIC50 is the negative decadic logarithm of the IC50, by convention in mol/L. As a reminder, the inhibition is the change of the read-out against control, counted positive when it falls.
